# Legend:
# Rat [1] = assay: concentration in plasma after dosing; conditions: dosed: Free Carbon disulfide, 50 mg/kg, iv, Male, F344
# Rat [2] = assay: concentration in plasma after dosing; conditions: dosed: Free Carbon disulfide, 50 mg/kg, iv, Male, F344; remark: listed apart in the source
# Rat [3] = assay: concentration in plasma after dosing; conditions: dosed: Free Carbon disulfide, 10 mg/kg, iv, Male, F344
# Rat [4] = assay: concentration in plasma after dosing; conditions: dosed: Free Carbon disulfide, iv, Male, F344
# Rat [5] = assay: concentration in plasma after dosing; conditions: dosed: Free Carbon disulfide, 10 mg/kg, iv, Male, F344; remark: listed apart in the source
# Rat [6] = assay: concentration in urine after dosing; conditions: dosed: dibromoacetic acid, 40 mg/kg, oral, Male, F344
# Rat [7] = assay: concentration in urine after dosing; conditions: dosed: dibromoacetic acid, oral, Male, F344
# Rat [8] = assay: concentration in urine after dosing; conditions: dosed: dibromoacetic acid, 100 mg/kg, oral, Male, F344
# Rat [9] = assay: concentration in urine after dosing; conditions: dosed: dibromoacetic acid, 100 mg/kg, oral, Male, F344; remark: listed apart in the source
# Rat [10] = assay: concentration in urine after dosing; conditions: dosed: dibromoacetic acid, 40 mg/kg, oral, Male, F344; remark: listed apart in the source
smiles,measurement,setting,value
S=C=S [Free Carbon disulfide],concentration in plasma,Rat [1]; 0.05 h,20.2 µg/g
same,concentration in plasma,Rat [1]; 5 min,15.9 µg/g
same,concentration in plasma,Rat [1]; 10 min,9.5 µg/g
same,concentration in plasma,Rat [1]; 20 min,5.6 µg/g
same,concentration in plasma,Rat [1]; 40 min,2.6 µg/g
same,concentration in plasma,Rat [1]; 1 h,2 µg/g
same,concentration in plasma,Rat [2]; 0.05 h,21.2 µg/g
same,concentration in plasma,Rat [2]; 5 min,11 µg/g
same,concentration in plasma,Rat [2]; 10 min,6.6 µg/g
same,concentration in plasma,Rat [2]; 20 min,4.9 µg/g
same,concentration in plasma,Rat [2]; 40 min,1.8 µg/g
same,concentration in plasma,Rat [2]; 1 h,1.2 µg/g
same,concentration in plasma,Rat [3]; 0.05 h,5.8 µg/g
same,concentration in plasma,Rat [3]; 5 min,7.9 µg/g
same,concentration in plasma,Rat [3]; 10 min,1.4 µg/g
same,concentration in plasma,"Rat [4]; 0.05 h, 10 mg/kg",5 µg/g
same,concentration in plasma,"Rat [4]; 0.05 h, 50 mg/kg",13.1 µg/g
same,concentration in plasma,"Rat [4]; 5 min, 10 mg/kg",1.9 µg/g
same,concentration in plasma,"Rat [4]; 5 min, 50 mg/kg",8.3 µg/g
same,concentration in plasma,"Rat [4]; 10 min, 10 mg/kg",1.2 µg/g
same,concentration in plasma,"Rat [4]; 10 min, 50 mg/kg",6.4 µg/g
same,concentration in plasma,"Rat [4]; 20 min, 10 mg/kg",0.8 µg/g
same,concentration in plasma,"Rat [4]; 20 min, 50 mg/kg",6.8 µg/g
same,concentration in plasma,"Rat [4]; 40 min, 50 mg/kg",4.2 µg/g
same,concentration in plasma,"Rat [4]; 1 h, 50 mg/kg",1.6 µg/g
same,concentration in plasma,"Rat [4]; 2 h, 50 mg/kg",0.9 µg/g
same,concentration in plasma,Rat [5]; 0.05 h,4.2 µg/g
same,concentration in plasma,Rat [5]; 5 min,2.5 µg/g
same,concentration in plasma,Rat [5]; 10 min,1.4 µg/g
same,concentration in plasma,Rat [5]; 20 min,0.7 µg/g
O=CC(=O)O [Glyoxylic acid],concentration in urine,Rat [6]; 0 h,18400 ng/mL
same,concentration in urine,Rat [6]; 2 h,11900 ng/mL
same,concentration in urine,Rat [6]; 24 h,35600 ng/mL
same,concentration in urine,Rat [6]; 48 h,37900 ng/mL
same,concentration in urine,"Rat [7]; 0 h, 40 mg/kg",29800 ng/mL
same,concentration in urine,"Rat [7]; 0 h, 100 mg/kg",20500 ng/mL
same,concentration in urine,"Rat [7]; 4 h, 40 mg/kg",13200 ng/mL
same,concentration in urine,"Rat [7]; 4 h, 100 mg/kg",25600 ng/mL
same,concentration in urine,"Rat [7]; 8 h, 40 mg/kg",27000 ng/mL
same,concentration in urine,"Rat [7]; 24 h, 40 mg/kg",31800 ng/mL
same,concentration in urine,"Rat [7]; 24 h, 100 mg/kg",30400 ng/mL
same,concentration in urine,"Rat [7]; 48 h, 40 mg/kg",26300 ng/mL
same,concentration in urine,"Rat [7]; 48 h, 100 mg/kg",54800 ng/mL
same,concentration in urine,Rat [8]; 0 h,27400 ng/mL
same,concentration in urine,Rat [8]; 2 h,20700 ng/mL
same,concentration in urine,Rat [8]; 4 h,28600 ng/mL
same,concentration in urine,Rat [8]; 8 h,31200 ng/mL
same,concentration in urine,Rat [8]; 24 h,28800 ng/mL
same,concentration in urine,Rat [8]; 48 h,47900 ng/mL
same,concentration in urine,Rat [9]; 0 h,16100 ng/mL
same,concentration in urine,Rat [9]; 4 h,25000 ng/mL
same,concentration in urine,Rat [9]; 24 h,30900 ng/mL
same,concentration in urine,Rat [9]; 48 h,34300 ng/mL
same,concentration in urine,Rat [10]; 0 h,22300 ng/mL
same,concentration in urine,Rat [10]; 8 h,20700 ng/mL
same,concentration in urine,Rat [10]; 24 h,36100 ng/mL
same,concentration in urine,Rat [10]; 48 h,34300 ng/mL

# From EPA's CvTdb concentration-time database
